Results reported in patent US20240101576A1, “HETEROCYCLIC INHIBITORS OF EGFR AND/OR HER2, FOR USE IN THE TREATMENT OF CANCER” (Scorpion Therapeutics, Inc., priority 2020, published 2024).

How the values were obtained:
Format in all cases: cell-based
EGFR L858R (Ba/F3 cells) = biological target: T1, EGFR L858R (Ba/F3 cells) (Homo sapiens, UniProt P00533, L858R); assay: Inhibitor activity on EGFR-dependent cell growth (CellTiter-Glo, 72 h), Ba/F3 EGFR L858R; details: read-out: BaF3 L858R IC50
T1 construct: expressed in transfected cells; host or cells: Ba/F3 (murine pro-B cells), retroviral transduction, puromycin selection, IL3-independent pool
T1 sequence (P00533 25-1210 L858R): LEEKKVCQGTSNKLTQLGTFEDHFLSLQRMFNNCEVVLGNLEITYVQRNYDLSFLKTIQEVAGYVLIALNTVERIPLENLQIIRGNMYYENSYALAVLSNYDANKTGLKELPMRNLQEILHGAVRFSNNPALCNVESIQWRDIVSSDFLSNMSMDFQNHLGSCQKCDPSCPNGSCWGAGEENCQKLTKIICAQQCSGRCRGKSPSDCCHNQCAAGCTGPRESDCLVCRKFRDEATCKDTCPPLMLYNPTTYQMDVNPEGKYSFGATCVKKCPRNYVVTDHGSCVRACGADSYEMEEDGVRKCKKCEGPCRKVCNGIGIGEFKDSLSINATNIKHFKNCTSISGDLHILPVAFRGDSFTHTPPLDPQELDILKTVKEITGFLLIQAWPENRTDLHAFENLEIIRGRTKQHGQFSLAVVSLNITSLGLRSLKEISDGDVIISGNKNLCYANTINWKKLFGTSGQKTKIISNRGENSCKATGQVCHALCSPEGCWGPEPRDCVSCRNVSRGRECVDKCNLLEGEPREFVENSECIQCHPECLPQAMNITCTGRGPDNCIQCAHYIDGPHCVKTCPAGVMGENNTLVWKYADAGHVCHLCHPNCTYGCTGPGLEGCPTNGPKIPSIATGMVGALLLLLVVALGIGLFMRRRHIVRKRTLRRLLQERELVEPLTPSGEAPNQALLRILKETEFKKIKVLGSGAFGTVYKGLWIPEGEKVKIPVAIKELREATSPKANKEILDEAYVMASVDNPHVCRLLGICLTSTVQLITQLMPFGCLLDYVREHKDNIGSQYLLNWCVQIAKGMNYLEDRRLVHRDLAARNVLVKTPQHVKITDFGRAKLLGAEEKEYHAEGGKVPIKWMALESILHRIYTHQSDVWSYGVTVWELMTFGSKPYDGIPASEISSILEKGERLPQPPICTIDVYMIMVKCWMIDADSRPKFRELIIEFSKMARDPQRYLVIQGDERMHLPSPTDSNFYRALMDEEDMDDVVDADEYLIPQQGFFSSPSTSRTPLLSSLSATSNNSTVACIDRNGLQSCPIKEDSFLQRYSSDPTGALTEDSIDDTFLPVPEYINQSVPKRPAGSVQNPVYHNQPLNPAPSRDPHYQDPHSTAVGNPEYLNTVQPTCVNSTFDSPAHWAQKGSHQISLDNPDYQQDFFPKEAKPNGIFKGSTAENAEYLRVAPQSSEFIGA
Source text: (§1) Example A. Inhibitor Activity on EGFR-Dependent Cell Growth
(§2) Cell lines are generated by transducing Ba/F3 cells with retroviruses containing vectors with EGFR WT, EGFR L858R, EGFR exon 19del, EGFR L858R/C797S, EGFR exon 20 NPG Ins D770_N771, EGFR exon 20 ASV Ins V769_D770, EGFR exon 20 SVD Ins D770_N771, or EGFR exon 20 FQEA Ins A763_V764 genes and a puromycin selection marker. Transduced cells are selected with puromycin for 7 days and are then be transferred into culture media without Interleukin 3 (IL3). EGFR WT cells are maintained with supplemental EGF. Surviving cells are confirmed to express EGFR by Western blot and maintained as a pool. The IC50 date were included in Table 6 and Table 7.
(§3) 1.1 Cells are harvested from flask into cell culture medium and the cell number counted.
(§4) 1.2 Cells are diluted with culture medium to the desired density and 40 μL of cell suspension is added into each well of 384-well cell culture plate and the seeding density is 800 (FQEA, exon 19del), 600 (WT, NPG, L858R/C797S), or 400 (ASV, SVD, L858R) cells/well.
(§5) 2 Compound Preparation and Treatment
(§6) 2.1 Test compounds are dissolved to 10 mM in a DMSO stock solution. 45 μL of stock solution is transferred to a 384 polypropylene plate (pp-plate). Perform 3-fold, 10-point dilution via transferring 15 μL compound into 30 μL DMSO using a TECAN (EVO200) liquid handler.
(§7) 2.2 Spin plates at room temperature at 1,000 RPM for 1 minute.
(§8) 2.3 Transfer 120 nL of diluted compound from compound source plate into the cell plate.
(§9) 2.4 After compound treatment for 72 hours, perform CTG detection for compound treatment plates as described in “Detection” section.
(§10) 3.1 Plates are removed from incubators and equilibrated at room temperature for 15 minutes.
(§11) 3.2 Thaw the CellTiter Glo reagents and allow to equilibrate to room temperature before the experiment.
(§12) 3.3 Add 40 μL of CellTiter-Glo reagent into each well (at 1:1 to culture medium). Then place the plates at room temperature for 30 min followed by reading on EnVision.
(§13) 4.1 Inhibition activity is calculated following the formula below:
(§14) % Inhibition=100×(LumHC−LumSample)/(LumHC−LumLC) • where HC is obtained from cells treated with 0.1% DMSO only; and LC is obtained from culture medium only.
(§15) 4.2 2. Calculate the IC50 by fitting the Curve using Xlfit (v5.3.1.3), equation 201.
(§16) Y=Bottom+(Top−Bottom)/(1+10^((Log IC50−X)*HillSlope))

[1] = biological target: EGFR exon 19del (Ba/F3 cells) (Homo sapiens, UniProt P00533); assay: Inhibitor activity on EGFR-dependent cell growth (CellTiter-Glo, 72 h), Ba/F3 EGFR exon 19del; details: Ba/F3 EGFR exon 19del cell growth, read-out: BaF3 Del19 IC50
EGFR exon 19del (Ba/F3 cells), sequence (P00533 with tags, fused parts or gaps DEL746-750): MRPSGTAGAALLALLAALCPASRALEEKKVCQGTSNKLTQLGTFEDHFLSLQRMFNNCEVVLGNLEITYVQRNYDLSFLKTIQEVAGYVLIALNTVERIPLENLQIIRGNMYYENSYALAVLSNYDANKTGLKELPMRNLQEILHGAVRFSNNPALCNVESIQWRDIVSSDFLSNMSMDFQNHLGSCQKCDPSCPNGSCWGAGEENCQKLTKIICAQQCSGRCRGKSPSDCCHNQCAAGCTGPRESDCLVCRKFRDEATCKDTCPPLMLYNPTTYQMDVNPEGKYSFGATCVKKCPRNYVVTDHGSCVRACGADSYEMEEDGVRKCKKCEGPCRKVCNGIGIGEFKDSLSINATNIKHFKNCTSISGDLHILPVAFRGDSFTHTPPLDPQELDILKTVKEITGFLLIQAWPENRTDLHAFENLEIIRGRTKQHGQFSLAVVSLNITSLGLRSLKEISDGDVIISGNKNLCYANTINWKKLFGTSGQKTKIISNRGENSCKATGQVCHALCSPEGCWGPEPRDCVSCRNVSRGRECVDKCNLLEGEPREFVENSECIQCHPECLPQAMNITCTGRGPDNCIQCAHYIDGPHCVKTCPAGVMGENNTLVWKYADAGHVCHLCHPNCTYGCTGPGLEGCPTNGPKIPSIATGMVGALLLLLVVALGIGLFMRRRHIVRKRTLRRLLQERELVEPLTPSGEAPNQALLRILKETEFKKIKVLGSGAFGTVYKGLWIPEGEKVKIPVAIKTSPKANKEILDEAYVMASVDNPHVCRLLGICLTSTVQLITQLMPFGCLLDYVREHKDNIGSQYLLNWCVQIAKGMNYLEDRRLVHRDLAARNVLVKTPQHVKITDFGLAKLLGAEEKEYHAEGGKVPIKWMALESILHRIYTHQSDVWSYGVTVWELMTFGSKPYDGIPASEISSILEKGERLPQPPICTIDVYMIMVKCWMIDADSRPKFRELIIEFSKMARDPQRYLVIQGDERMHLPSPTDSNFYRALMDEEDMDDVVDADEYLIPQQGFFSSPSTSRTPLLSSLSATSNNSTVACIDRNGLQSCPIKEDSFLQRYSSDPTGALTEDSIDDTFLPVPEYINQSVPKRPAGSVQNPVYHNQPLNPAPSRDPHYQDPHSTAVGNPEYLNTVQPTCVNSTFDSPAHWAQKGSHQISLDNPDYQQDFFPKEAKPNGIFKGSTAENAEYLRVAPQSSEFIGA
Source text: as §1, §2, §3, §4, §5, §6, §7, §8, §9, §10, §11, §12, §13, §14, §15, §16

EGFR WT (Ba/F3 cells) = biological target: T2, EGFR WT (Ba/F3 cells) (Homo sapiens, UniProt P00533); assay: Inhibitor activity on EGFR-dependent cell growth (CellTiter-Glo, 72 h), Ba/F3 EGFR WT; details: read-out: BaF3 WT IC50
T2 construct: expressed in transfected cells; host or cells: Ba/F3 (murine pro-B cells), retroviral transduction, puromycin selection, maintained with EGF
T2 sequence (P00533 25-1210): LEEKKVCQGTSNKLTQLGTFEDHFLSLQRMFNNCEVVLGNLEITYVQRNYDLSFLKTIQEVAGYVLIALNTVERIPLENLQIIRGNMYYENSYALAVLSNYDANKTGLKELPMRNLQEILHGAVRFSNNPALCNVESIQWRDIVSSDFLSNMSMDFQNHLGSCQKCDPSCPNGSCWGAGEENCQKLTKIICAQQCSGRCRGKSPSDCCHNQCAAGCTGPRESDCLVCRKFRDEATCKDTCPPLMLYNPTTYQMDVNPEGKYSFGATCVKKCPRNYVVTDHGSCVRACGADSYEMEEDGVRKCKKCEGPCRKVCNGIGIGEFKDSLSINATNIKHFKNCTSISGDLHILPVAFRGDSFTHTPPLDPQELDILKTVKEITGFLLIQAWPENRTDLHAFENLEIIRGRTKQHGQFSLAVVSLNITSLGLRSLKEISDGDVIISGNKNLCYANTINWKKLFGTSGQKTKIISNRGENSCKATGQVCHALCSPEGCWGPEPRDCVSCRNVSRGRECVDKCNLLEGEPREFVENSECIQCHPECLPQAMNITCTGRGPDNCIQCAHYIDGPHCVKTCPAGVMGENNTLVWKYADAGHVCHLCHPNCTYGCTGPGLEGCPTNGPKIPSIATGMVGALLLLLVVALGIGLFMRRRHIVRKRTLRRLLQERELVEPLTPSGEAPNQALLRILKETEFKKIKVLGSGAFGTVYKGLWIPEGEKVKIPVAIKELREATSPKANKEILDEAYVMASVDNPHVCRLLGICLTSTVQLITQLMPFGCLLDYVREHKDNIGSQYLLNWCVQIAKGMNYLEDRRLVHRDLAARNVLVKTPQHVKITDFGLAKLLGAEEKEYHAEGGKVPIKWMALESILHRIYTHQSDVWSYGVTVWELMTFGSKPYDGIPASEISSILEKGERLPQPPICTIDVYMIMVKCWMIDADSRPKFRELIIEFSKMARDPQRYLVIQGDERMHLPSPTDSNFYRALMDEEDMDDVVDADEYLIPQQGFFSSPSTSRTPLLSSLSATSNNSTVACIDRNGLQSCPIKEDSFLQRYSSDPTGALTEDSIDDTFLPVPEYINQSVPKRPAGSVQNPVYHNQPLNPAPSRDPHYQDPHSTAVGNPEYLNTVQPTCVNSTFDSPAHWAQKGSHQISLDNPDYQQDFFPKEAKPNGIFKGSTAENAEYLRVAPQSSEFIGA
In short: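 This growth assay used Ba/F3 cells that depend on wild-type EGFR and are kept in EGF without IL3. Compounds were made up as 10 mM DMSO stocks and diluted 3-fold over 10 points. 120 nL went onto 600 cells/well. After 72 hours, 40 μL CellTiter-Glo was added and luminescence read on EnVision after 30 min.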

[2] = biological target: T3, EGFR exon 20 NPG Ins D770_N771 (Ba/F3 cells) (Homo sapiens, UniProt P00533, INS770NPG); assay: Inhibitor activity on EGFR-dependent cell growth (CellTiter-Glo, 72 h), Ba/F3 EGFR exon 20 NPG Ins; details: read-out: BaF3 NPG IC50
T3 construct: expressed in transfected cells; host or cells: Ba/F3 (murine pro-B cells), retroviral transduction, puromycin selection, IL3-independent pool
In short: (§17)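 IC50s derive from a sigmoidal dose–response fit of CellTiter-Glo signal. The signal was normalised between […]-treated cells and cell-free medium. Ba/F3 mutant-EGFR cells, seeded at 400–800/well depending on the line, had 72 h of exposure to a 10-point, 3-fold compound series.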

[3] = biological target: T4, EGFR exon 20 ASV Ins V769_D770 (Ba/F3 cells) (Homo sapiens, UniProt P00533, INS769ASV); assay: Inhibitor activity on EGFR-dependent cell growth (CellTiter-Glo, 72 h), Ba/F3 EGFR exon 20 ASV Ins; details: read-out: BaF3 ASV IC50
T4 construct: expressed in transfected cells; host or cells: Ba/F3 (murine pro-B cells), retroviral transduction, puromycin selection, IL3-independent pool
T4 sequence (P00533 with tags, fused parts or gaps INS769ASV): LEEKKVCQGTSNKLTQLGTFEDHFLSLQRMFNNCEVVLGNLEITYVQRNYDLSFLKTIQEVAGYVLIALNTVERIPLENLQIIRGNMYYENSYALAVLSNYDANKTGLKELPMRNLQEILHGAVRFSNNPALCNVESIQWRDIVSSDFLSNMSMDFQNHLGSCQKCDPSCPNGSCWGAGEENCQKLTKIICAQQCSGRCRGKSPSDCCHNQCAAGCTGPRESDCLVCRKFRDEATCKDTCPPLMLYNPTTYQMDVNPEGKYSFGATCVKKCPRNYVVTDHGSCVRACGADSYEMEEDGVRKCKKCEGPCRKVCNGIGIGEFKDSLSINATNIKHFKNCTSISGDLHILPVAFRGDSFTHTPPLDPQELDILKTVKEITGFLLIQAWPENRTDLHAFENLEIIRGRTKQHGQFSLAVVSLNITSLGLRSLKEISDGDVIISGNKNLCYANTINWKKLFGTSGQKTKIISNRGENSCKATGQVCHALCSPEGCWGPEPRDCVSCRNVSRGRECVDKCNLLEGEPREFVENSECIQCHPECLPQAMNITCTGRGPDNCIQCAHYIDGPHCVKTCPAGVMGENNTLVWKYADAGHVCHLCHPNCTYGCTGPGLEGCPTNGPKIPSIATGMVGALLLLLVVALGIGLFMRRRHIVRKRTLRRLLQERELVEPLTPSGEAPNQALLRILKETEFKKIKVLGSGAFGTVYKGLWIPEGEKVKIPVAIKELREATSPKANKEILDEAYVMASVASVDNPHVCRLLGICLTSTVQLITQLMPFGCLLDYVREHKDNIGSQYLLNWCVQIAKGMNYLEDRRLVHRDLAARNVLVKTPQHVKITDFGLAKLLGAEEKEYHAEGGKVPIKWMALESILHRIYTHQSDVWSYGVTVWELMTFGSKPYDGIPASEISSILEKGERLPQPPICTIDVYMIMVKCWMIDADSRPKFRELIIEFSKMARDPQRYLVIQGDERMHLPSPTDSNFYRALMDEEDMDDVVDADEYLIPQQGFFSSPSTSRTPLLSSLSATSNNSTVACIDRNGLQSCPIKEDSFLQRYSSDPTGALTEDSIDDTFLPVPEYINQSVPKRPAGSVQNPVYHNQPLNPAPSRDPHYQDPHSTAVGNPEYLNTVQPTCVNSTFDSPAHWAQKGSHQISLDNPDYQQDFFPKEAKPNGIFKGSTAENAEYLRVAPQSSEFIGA
In short: as §17

[4] = biological target: T5, EGFR exon 20 SVD Ins D770_N771 (Ba/F3 cells) (Homo sapiens, UniProt P00533, INS770SVD); assay: Inhibitor activity on EGFR-dependent cell growth (CellTiter-Glo, 72 h), Ba/F3 EGFR exon 20 SVD Ins; details: read-out: BaF3 SVD IC50
T5 construct: expressed in transfected cells; host or cells: Ba/F3 (murine pro-B cells), retroviral transduction, puromycin selection, IL3-independent pool
In short: as §17

[5] = biological target: T6, EGFR exon 20 FQEA Ins A763_V764 (Ba/F3 cells) (Homo sapiens, UniProt P00533, INS763FQEA); assay: Inhibitor activity on EGFR-dependent cell growth (CellTiter-Glo, 72 h), Ba/F3 EGFR exon 20 FQEA Ins; details: read-out: BaF3 FQEA IC50
T6 construct: expressed in transfected cells; host or cells: Ba/F3 (murine pro-B cells), retroviral transduction, puromycin selection, IL3-independent pool
In short: as §17

[6] = biological target: T3, EGFR exon 20 NPG Ins D770_N771 (Ba/F3 cells); assay: Inhibitor activity on EGFR phosphorylation (pEGFR AlphaLISA, 2 h), Ba/F3 EGFR exon 20 NPG Ins
Source text: Example B. Inhibitor Activity on EGFR phosphorylation (pEGFR)
EGFR mutant Ba/F3 cells were generated by transduction with retrovirus containing vectors expressing EGFR L858R, EGFR exon 19del, EGFR L858R/C797S, EGFR exon 20 NPG Ins D770_N771, EGFR exon 20 ASV Ins V769_D770, or EGFR exon 20 SVD Ins D770_N771 genes along with a puromycin selection marker. Transduced cells are selected with puromycin for 7 days and are then be transferred into culture media without Interleukin 3 (IL3). Surviving cells are confirmed to express EGFR by Western blot and maintained as a pool. CUTO14 cells were obtained from Dr. Robert C. Doebele at the University of Colorado. The IC50 date are included in Table 6 and Table 7.
as §3
1.2 Cells are diluted with culture medium to the desired density and 40 μL of cell suspension is added into each well of 384-well cell culture plate and the seeding density is 50K cells/well (Ba/F3) or 12.5K cells/well (CUTO14).
as §5, §6, §7
2.3 Transfer 5 nL of diluted compound from compound source plate into the cell plate.
2.4 After compound treatment for 2 hours, perform pEGFR detection by AlphaLISA for compound treatment plates as described in “Detection” section.
3 Detection by pEGFR AlphaLISA (Perkin-Elmer)
3.1 Plates are removed from incubators and equilibrated at room temperature for 10 minutes, and media was removed
3.2 10 μL of lysis buffer is added and plates shaken at 600 rpm for 1 hr.
3.3 Prepare acceptor mix just before use and dispense 5 μL of acceptor mix to all the wells. Shake 350 rpm for Ihr in the dark
3.4 Prepare donor mix under low light conditions prior to use. Dispense 5 μL of donor mix to all the wells. Mix well on the shaker, seal and wrap in aluminum foil and incubate 1.5 hrs at room temperature in the dark
3.5 Transfer 18.5 μL mixture to OptiPlate 384, and read using an Envision. The IC50 date were included in Table 6 and Table 7.

[7] = biological target: T4, EGFR exon 20 ASV Ins V769_D770 (Ba/F3 cells); assay: Inhibitor activity on EGFR phosphorylation (pEGFR AlphaLISA, 2 h), Ba/F3 EGFR exon 20 ASV Ins; details: EGFR phosphorylation, AlphaLISA, 2 hours; read-out: ASV IC50 (pEGFR)
In short: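 pEGFR AlphaLISA readout after 2 h compound exposure; IC50 from 10-point, 3-fold dilutions (10 mM DMSO stock). Ba/F3 mutant lines grown without IL3, 50K cells/well; CUTO14 12.5K cells/well.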

IC50 (EGFR L858R (Ba/F3 cells))	IC50 [1]	IC50 (EGFR WT (Ba/F3 cells))	IC50 [2]	IC50 [3]	IC50 [4]	IC50 [5]	IC50 [6]	IC50 [7]	SMILES
< 100 nM	< 100 nM	100 to 1000 nM	< 100 nM	< 100 nM	< 100 nM	< 100 nM	–	–	CC[C@@H]1CNC(=O)c2c1[nH]c(-c1ccnc(N)n1)c2Nc1cccc(Cl)c1OC [189a]
< 100 nM	< 100 nM	100 to 1000 nM	–	< 100 nM	< 100 nM	< 100 nM	–	–	COc1c(F)cccc1Nc1c(-c2ccnc3ccoc23)[nH]c2c1C(=O)NCC2 [Compound 553, 3-[(3-fluoro-2-methoxyphenyl)amino]-2-{furo[3,2-b]pyridin-7-yl}-1H,5H,6H,7H-pyrrolo[3,2-c]pyridin-4-one]
< 100 nM	< 100 nM	< 100 nM	–	< 100 nM	< 100 nM	< 100 nM	–	–	COCC[C@@H]1CNC(=O)c2c1[nH]c(-c1ccncc1F)c2Nc1cccc(F)c1C [compound 823]
< 100 nM	< 100 nM	< 100 nM	< 100 nM	< 100 nM	< 100 nM	< 100 nM	–	–	CCO[C@@H](C)c1ccc2nccc(-c3[nH]c4c(c3Nc3cccc(Cl)c3OC)C(=O)NCC4)c2n1 [compound 754, 3-[(3-chloro-2-methoxyphenyl)amino]-2-[6-[(1S)-1-ethoxyethyl]-1,5-naphthyridin-4-yl]-1H,5H,6H,7H-pyrrolo[3,2-c]pyridin-4-one; trifluoroacetic acid]
< 100 nM	< 100 nM	> 1000 nM	100 to 1000 nM	100 to 1000 nM	100 to 1000 nM	–	–	–	COCC[C@@H]1CNC(=O)c2c1[nH]c(-c1ccnc(C)n1)c2Nc1cccc(F)c1OC [453a]
< 100 nM	< 100 nM	100 to 1000 nM	–	< 100 nM	< 100 nM	< 100 nM	–	–	Cc1ccc2nccc(-c3[nH]c4c(c3Nc3cccc(F)c3C)C(=O)NCC4)c2n1 [Compound 810, 3-[(3-fluoro-2-methylphenyl)amino]-2-(6-methyl-1,5-naphthyridin-4-yl)-1H,5H,6H,7H-pyrrolo[3,2-c]pyridin-4-one]
–	–	100 to 1000 nM	100 to 1000 nM	100 to 1000 nM	100 to 1000 nM	100 to 1000 nM	< 100 nM	< 100 nM	CNc1nccc(-c2[nH]c3c(c2Nc2cccc(F)c2OC)C(=O)NCC3)n1 [Compound 691, 3-[(3-fluoro-2-methoxyphenyl)amino]-2-[2-(methylamino)pyrimidin-4-yl]-1H,5H,6H,7H-pyrrolo[3,2-c]pyridin-4-one]
–	–	100 to 1000 nM	< 100 nM	< 100 nM	< 100 nM	100 to 1000 nM	< 100 nM	< 100 nM	CNc1nccc(-c2[nH]c3c(c2Nc2cccc(Cl)c2OC)C(=O)NCC3)n1 [compound 108]
–	–	< 100 nM	< 100 nM	< 100 nM	< 100 nM	< 100 nM	< 100 nM	< 100 nM	COCCNc1ccc2nccc(-c3[nH]c4c(c3Nc3cccc(Cl)c3OC)C(=O)NCC4)c2n1 [Compound 680, 3-[(3-chloro-2-methoxyphenyl)amino]-2-[6-[(2-methoxyethyl)amino]-1,5-naphthyridin-4-yl]-1H,5H,6H,7H-pyrrolo[3,2-c]pyridin-4-one; formic acid]
–	–	> 1000 nM	> 1000 nM	> 1000 nM	> 1000 nM	> 1000 nM	100 to 1000 nM	> 1000 nM	COc1nccc(-c2[nH]c3c(c2Nc2cccc(Cl)c2OC)C(=O)NCC3)n1 [compound 286]
–	–	100 to 1000 nM	100 to 1000 nM	100 to 1000 nM	100 to 1000 nM	100 to 1000 nM	< 100 nM	100 to 1000 nM	Cc1c(F)cccc1Nc1c(-c2ccnc(N)c2F)[nH]c2c1C(=O)NCC2 [Compound 692, 2-(2-amino-3-fluoropyridin-4-yl)-3-[(3-fluoro-2-methylphenyl)amino]-1H,5H,6H,7H-pyrrolo[3,2-c]pyridin-4-one]

SMILES	IC50 (EGFR L858R (Ba/F3 cells))	IC50 [1]	IC50 (EGFR WT (Ba/F3 cells))	IC50 [2]	IC50 [3]	IC50 [4]	IC50 [5]	IC50 [6]	IC50 [7]
COc1c(Cl)cccc1Nc1c(-c2ccnc3ccc(OC4CC(F)(F)C4)nc23)[nH]c2c1C(=O)NCC2 [Compound 766, 3-[(3-chloro-2-methoxyphenyl)amino]-2-[6-(3,3-difluorocyclobutoxy)-1,5-naphthyridin-4-yl]-1H,5H,6H,7H-pyrrolo[3,2-c] pyridin-4-one]	< 100 nM	< 100 nM	100 to 1000 nM	< 100 nM	< 100 nM	< 100 nM	< 100 nM	–	–
